Patent US20130072505A1, “6,9-Disubstituted Purine Derivatives and Their Use for Treating Skin” (priority 2006, published 2013)

Experiments:
[1] = system: Human forskin fibroblasts (cell line BJ); assay: in vitro cytotoxic activity, MTT assay; assay type: cell-based; conditions: 72 hours, BJ fibroblasts at middle passage
Protocol: In vitro cytotoxic activity of several of the 6,9-disubstituted purine derivatives of this invention against human diploid fibroblasts was determined by standard MTT assay optimized for 96-well plates. The assay is based on spectrofotometric measurement of the product of metabolic conversion of MTT by mitochondria of living cells.
Human forskin fibroblasts (cell line BJ) at middle passage were maintained in 75 cm^2 plastic tissue culture flasks and cultured in cell culture medium (DMEM with 5 g/l glucose, 2 mM glutamine, 100 U/ml penicillin, 100 μg/ml streptomycin, 10% fetal calf serum, and sodium bicarbonate).
About 5,000 cells were seeded per well of the 96-well plate. After 24 hours the cell culture medium was replaced with the cell culture medium containing a test compound. The test compounds were evaluated at six 2-fold dilutions. The highest concentration used in the present study was usually 200 μM. In the case of compounds with limited solubility in the culture medium the highest concentration was adjusted. Every test compound was examined in five replicates. Cells with the test compounds were incubated for 72 hours at 37° C. in 5% CO2 atmosphere and 100% humidity. At the end of the incubation period, the culture medium was replaced with the cell culture medium containing MTT (0.5 mg/ml) and cells were incubated for another 3 hours. The formazan formed was solubilized by DMSO and absorbance at 570 nm was measured. Ability of the tested compounds to inhibit MTT reducing activity of the cells was calculated as IC=(Acompound exposed well−mean Ablank)/(mean Acontrol well−meanAblank)×100%. IC10, the drug concentration causing 10% decrease in MTT reducing activity, was calculated from the obtained dose response curves.

[2] = system: Human diploid fibroblasts (HCA cells); assay: inhibition of senescence, β-galactosidase staining; assay type: cell-based; conditions: test compounds about 50 μM at each passage; for Senescent Cells (%) HCA25: passage 25; for Senescent Cells (%) HCA80: passage 80
Protocol: Inhibition of senescence by several of the 6,9-disubstituted purine derivatives of this invention was determined; kinetin was also evaluated as a control. […] The medium used for the cell cultivation was removed, the cells were washed twice in PBS, and fixed in 2-3 ml of fixing solution comprised of a 2% formaldehyde and 0.2% glutaraldehyde in PBS. The cells were incubated at room temperature for 5 minutes, and then washed twice with PBS. The cells were subsequently incubated at 37° C. (without CO2) for 1 to 16 hours in 2-3 ml of the solution comprising potassium ferricyanide (5 mM), potassium ferrocyanide (5 mM), MgCl2 (2 mM), X-gal (5-bromo-4-chloro-3-indolyl-β-D-galactopyranoside) (1 mg/ml), in citric/phosphate buffer (pH 6.0). The test compounds (about 50 μM) were added to the medium at each passage. […] In this experiment, only senescent cells were stained blue due to the action of β-galactosidase on the substrate.

Compound	IC10 (concentration causing 10% decrease in MTT reducing activity) [1]	melting point	Senescent Cells (%) HCA50 [2]	Senescent Cells (%) HCA25 [2]	Senescent Cells (%) HCA80 [2]	further results
COc1cc(OC)c(OC)cc1CNc1ncnc2c1ncn2C1CCCCO1 (stereo not drawn) [6-(2,4,5-trimethoxybenzylamino)-9-(2-tetrahydropyranyl)purine]	>200 µM	–	–	–	–	–
COc1ccc(OC)c(CNc2ncnc3c2ncn3C2CCCO2)c1 (stereo not drawn) [Example 13, 6-(2,5-dimethoxybenzylamino)-9-(2-tetrahydrofuranyl)purine]	–	103 to 104 °C	–	–	–	–
COc1cc(OC)c(OC)cc1Nc1ncnc2c1ncn2C1CCCCO1 (stereo not drawn) [6-(2,4,5-trimethoxyphenylamino)-9-(2-tetrahydropyranyl)purine]	–	–	4%	5%	25%	–
COc1ccc(Nc2ncnc3c2ncn3C2CCCCO2)cc1OC (stereo not drawn) [6-(3,4-dimethoxyphenylamino)-9-(2-tetrahydropyranyl)purine]	–	–	7%	5%	28%	–
COc1ccc(CNc2ncnc3c2ncn3C2CCCCO2)cc1OC (stereo not drawn) [6-(3,4-dimethoxybenzylamino)-9-(2-tetrahydropyranyl)purine]	>200 µM	–	–	–	–	–
COc1ccccc1CNc1ncnc2c1ncn2C1CCCCO1 (stereo not drawn) [6-(2-methoxybenzylamino)-9-(2-tetrahydropyranyl)purine]	–	106 to 108 °C	6%	4%	22%	–
COc1ccc(CNc2ncnc3c2ncn3C2CCCCO2)c(OC)c1 (stereo not drawn) [6-(2,4-dimethoxybenzylamino)-9-(2-tetrahydropyranyl)purine]	>25 µM	–	6%	4%	25%	–
c1coc(CNc2ncnc3c2ncn3C2CCCO2)c1 (stereo not drawn) [6-furfurylamino-9-(2-tetrahydrofuranyl)purine]	>200 µM	128 to 129 °C	4%	3%	12%	–
COc1ccc(Nc2ncnc3c2ncn3C2CCCCO2)cc1 (stereo not drawn) [Example 10, 6-(4-methoxyphenylamino)-9-(2-tetrahydropyranyl)purine]	–	150 to 151 °C	–	–	–	–
COc1ccc(OC)c(CNc2ncnc3c2ncn3C2CCCCO2)c1 (stereo not drawn) [Example 12, 6-(2,5-dimethoxybenzylamino)-9-(2-tetrahydropyranyl)purine]	–	150 to 152 °C	–	–	–	–
COc1ccc(Nc2ncnc3c2ncn3C2CCCCO2)c(OC)c1 (stereo not drawn) [6-(2,4-dimethoxyphenylamino)-9-(2-tetrahydropyranyl)purine]	–	–	4%	4%	29%	–
COc1ccccc1CNc1ncnc2c1ncn2C1CCCO1 (stereo not drawn) [Example 8, 6-(2-methoxybenzylamino)-9-(2-tetrahydrofuranyl)purine]	–	97 to 99 °C	–	–	–	–
COc1ccc(CNc2ncnc3c2ncn3C2CCCO2)c(OC)c1OC (stereo not drawn) [Example 15, 6-(2,3,4-trimethoxybenzylamino)-9-(2-tetrahydrofuranyl)purine]	–	140 to 141 °C	–	–	–	–
COc1cc(OC)c(CNc2ncnc3c2ncn3C2CCCCO2)c(OC)c1 (stereo not drawn) [6-(2,4,6-trimethoxybenzylamino)-9-(2-tetrahydropyranyl)purine]	>50 µM	–	–	–	–	–
COc1ccc(CNc2ncnc3c2ncn3C2CCCCO2)c(OC)c1OC (stereo not drawn) [6-(2,3,4-trimethoxybenzylamino)-9-(2-tetrahydropyranyl)purine]	–	142 to 143 °C	5%	4%	31%	–
COc1cc(CNc2ncnc3c2ncn3C2CCCCO2)cc(OC)c1OC (stereo not drawn) [6-(3,4,5-trimethoxybenzylamino)-9-(2-tetrahydropyranyl)purine]	–	–	–	–	–	IC10 (concentration causing 10% decrease in MTT reducing activity) ([1]; highest tested concentration 100 µmol/l): >100 µM; IC10 (concentration causing 10% decrease in MTT reducing activity) ([1]; highest tested concentration 200 µmol/l): >200 µM
